Results: patent publication US12043601B2, “N-substituted-1H-1,2,4-triazole-3-carboxamides, analogues thereof, and methods of treatment using same” (THE REGENTS OF THE UNIVERSITY OF COLORADO, priority 2018, dated 2024)
Converted amounts (≈) assume the structure as drawn.

Experiments:
[1] = target: DksA (Salmonella typhimurium, UniProt P0A1G5); assay: DksA-dependent livJ in vitro transcription; assay type: biochemical; conditions: livJ promoter; for IVT: concentration showing activity
Experimental: To measure the potency of a compound in inhibition of DksA biological function, rpsMtranscripts in vitro was determined by non-radioactive in vitro transcription reactions with qPCR analysis with divergent compounds. Briefly, 5 nM pTIM-rpsMplasmid was mixed with […] of compounds in 10 μl reaction buffer (40 mM HEPES [pH 7.4], 2 mM MgCl2, 60 mM potassium glutamate, 0.05% NP-40, 200 μM ATP, 200 μM GTP, 200 μM CTP, 200 μM UTP, and 5 nM E. coli RNA polymerase holoenzyme (NEB, Ipswich, MA) with 5 μM DksA. The in vitro transcription was carried out at 37° C. for 10 min, and then terminated at 70° C. for 10 min. To remove template DNA after treated with DNaseI, DNA-free DNA Removal kit (ThermoFisher) was used according to manufacturer's direction. The resulting materials were used as templates to generate cDNA with 100 U MMLV reverse transcriptase (Promega), 0.45 μM gene specific primer, and 20 U RNase inhibitor (Promega). The amount of cDNA synthesized for 1 h at 42° C. was quantified by real-time PCR (qRT-PCR). The copy number of specific transcripts was calculated to the standard curve generated with known gene copy concentrations. The IC50 is the concentration at which the curve passes through the 50% inhibition level. Standard deviation was calculated from 3 independent experiments.
The compounds were initially tested at 0.1 μM and 1 μM using as a target the promoter of the livJ gene that encodes a transporter of branch-chain amino acids (Table 4).

[2] = test system: Salmonella strain 14028s; assay: Minimum inhibitory concentration in EG minimal media; assay type: cell-based, Salmonella Typhimurium; conditions: 18 h; for Growth in EG at concentration tested 1 μg/ml / Growth in EG at concentration tested 2 μg/ml / Growth in EG at concentration tested 4 μg/ml / Growth in EG at concentration tested 8 μg/ml / Growth in EG at concentration tested 16 μg/ml / Growth in EG at concentration tested 32 μg/ml: EG minimal media, 37° C.
Experimental: DksA controls transcription of metabolic and virulence genes, allowing bacteria to both grow in minimum media and cause disease. Inhibition of bacterial growth in EG minimum media was used as an easy and reliable proxy of the DksA-dependent regulation of metabolism.
In a non-limiting example, wild-type Salmonella strain 14028s was grown overnight (18.5 h), and then diluted in EG minimal media to a density of about 10^5 CFU/mL. […] Each test tube was incubated at 37° C. with shaking for 18 h and bacterial growth was evaluated. The MIC value was determined as the lowest concentration of compound that inhibited growth.

[3] = Compound solubility; assay type: physicochemical; conditions: for Compound Solubility, 1 μM: solvent at 1 μM; for Compound Solubility, 10 μM: solvent at 10 μM; for Compound Solubility, 100 μM: solvent at 100 μM; for Compound Solubility, 1 mM: solvent at 1 mM; for Compound Solubility, 10 mM: solvent at 10 mM; for Compound Solubility, 16 mg/ml: solvent at 16 mg/ml

Chain of DksA (P0A1G5 whole entry): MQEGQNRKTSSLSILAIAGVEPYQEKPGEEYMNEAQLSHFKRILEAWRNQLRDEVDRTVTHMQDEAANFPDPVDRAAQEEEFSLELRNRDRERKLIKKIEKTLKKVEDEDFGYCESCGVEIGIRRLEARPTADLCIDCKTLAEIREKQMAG

Row | Structure (SMILES) | In vitro transcription assay result, 0.1 μM [1] | In vitro transcription assay result, 1 μM [1] | Growth in EG at concentration tested 1 μg/ml [2] | Growth in EG at concentration tested 2 μg/ml [2] | Growth in EG at concentration tested 4 μg/ml [2] | MIC ([2]; Salmonella, 14028S) [µg/mL] | Compound Solubility, 1 μM [3] | Compound Solubility, 10 μM [3] | Compound Solubility, 100 μM [3] | Compound Solubility, 1 mM [3] | Compound Solubility, 10 mM [3] | Compound Solubility, 16 mg/ml [3] | IVT [1] [µM] | Growth in EG at concentration tested 8 μg/ml [2] | Growth in EG at concentration tested 16 μg/ml [2] | Growth in EG at concentration tested 32 μg/ml [2]
1 | COc1cccc(CNC(=O)c2nc[nH]n2)c1 [Compound 7, N-(3-methoxybenzyl)-1H-1,2,4-triazole-3-carboxamide] | no change | no change | + | + | + | 8 (≈ 34.4 µM) | water | water | water | water | water | DMSO | – | – | – | –
2 | O=C(NCc1ccc(OC(F)(F)F)cc1)c1nc[nH]n1 [Compound 8, N-(4-(trifluoromethoxy)benzyl)-1H-1,2,4-triazole-3-carboxamide] | no induction | no induction | + | + | + | – | water | water | water | water | DMSO | DMSO | 0.1 | + | + | +
3 | O=C(NCc1cccc(OC(F)(F)F)c1)c1nc[nH]n1 [Compound 9, N-(3-(trifluoromethoxy)benzyl)-1H-1,2,4-triazole-3-carboxamide] | no induction | Repression | + | + | + | – | water | water | water | water | DMSO | DMSO | 0.1 | + | + | +
4 | COc1ccc(CNC(=O)c2nc[nH]n2)cc1C(F)(F)F [Compound 10, N-(4-methoxy-3-(trifluoromethyl)benzyl)-1H-1,2,4-triazole-3-carboxamide] | no change | no induction | + | + | + | – | water | water | water | water | water | DMSO | 1 | + | + | +
5 | O=C(Nc1ccc(C(F)(F)F)cc1)c1nc[nH]n1 [Compound 11, N-(4-(trifluoromethyl)phenyl)-1H-1,2,4-triazole-3-carboxamide] | good repression | good repression | + | + | + | – | water | water | water | DMSO | DMSO | DMSO | 0.1 | + | + | +
6 | CC(C)(C)c1ccc(NC(=O)c2nc[nH]n2)cc1 [Compound 13, N-(4-(tert-butyl)phenyl)-1H-1,2,4-triazole-3-carboxamide] | no induction | no induction | + | + | + | – | water | water | water | water | DMSO | DMSO | 0.1 | + | + | +
